Measurements taken from the NIST ThermoML archive (doi:10.1021/acs.jced.9b00419).
Where “and” joins values, the source holds several entries; their conditions need not be identical. Equal entries are not always repeated. ± gives the expanded uncertainty stated by the source.

Details: Liquid, Transpiration method

CCCCCCC(CO)CCCC (stereo unspecified) [2-butyl-1-octanol]
Details	vapor or sublimation pressure [kPa]
308.1 K	0.00112 ± 8e-05
312.9 K	0.00195 ± 0.00013
317.8 K	0.00325 ± 0.00022
322.7 K	0.00526 ± 0.00038
327.6 K	0.00824 ± 0.00057
332.5 K	0.01315 ± 0.00087
337.5 K	0.02027 ± 0.0013
342.6 K	0.03024 ± 0.0019
347.6 K	0.0452 ± 0.0029
352.6 K	0.06767 ± 0.0043

CCCCCCOC(=O)CCCCC [hexanoic acid, hexyl ester]
Details	vapor or sublimation pressure
298.4 K	0.00313 ± 0.00021 kPa
303.2 K	0.0049 ± 0.00032 kPa
308 K	0.00732 ± 0.00051 kPa
312.8 K	0.01166 ± 0.00079 kPa and 0.01116 ± 0.00074 kPa
317.7 K	0.01667 ± 0.0011 kPa
322.6 K	0.0257 ± 0.0017 kPa
327.5 K	0.03605 ± 0.0023 kPa
332.4 K	0.05276 ± 0.0034 kPa
337.3 K	0.07541 ± 0.0048 kPa
342.3 K	0.1055 ± 0.0066 kPa
347.3 K	0.1426 ± 0.0089 kPa and 0.1453 ± 0.0091 kPa
